According to patent US20100092443A1, “NOVEL COMBINATIONS OF NITROGENATED HETEROCYCLIC ANTIBACTERIAL COMPOUNDS WITH OTHER ANTIBACTERIAL COMPOUNDS AND THE USE OF SAME AS DRUGS” (priority 2008, published 2010):
Counter-ions that a name gives are not always drawn. Like-named read-outs stand apart in the source and are kept apart here.

What was measured:
[1] = test system: P. aeruginosa (391 HT2); assay: MICs determined on microplates; format: cell-based, Pseudomonas aeruginosa; details: sensitive strain P. aeruginosa 391 HT2
Protocol: (§1) The minimum inhibitory concentrations (MICs) of the products to be tested (products alone and combinations) are determined in advance. • For each concentration of product to be tested as well as the control stock, an Erlenmeyer flask containing 18.5 ml Muller-Hinton medium (Ca^++) is prepared. • From an overnight culture in broth or a bacterial suspension of OD (optical density)=1, a 1/100 dilution is prepared. • The sample is cultured with agitation for 2 h at 37° C. • OD is measured: if >0.5, the sample is diluted to 1/10. • Each Erlenmeyer flask is inoculated with 1 ml of the agitated culture or its dilution. The initial inoculum should be 1×10^6 CFU/ml. • The various antibiotic solutions are added at a volume of 0.5 ml and 0.5 ml of medium in the control Erlenmeyer flask. • With a volume of 0.1 ml, the control Erlenmeyer flask is numbered=TO. • The flask is incubated at 37° C. with agitation. • At each sampling point (2, 4, 6, 24, 48 hours), a volume of 0.1 ml is sampled from each Erlenmeyer flask and numbered. • Plates for all the numbered samples are incubated (24 h-48 h) at 37° C.
Bactericidal activity was evaluated on a sensitive strain of P. aeruginosa (391 HT2)

[2] = test system: P. aeruginosa (391 HT2); assay: MICs in a volume of 10 ml, bactericidal conditions (exponential bacterial growth); format: cell-based, Pseudomonas aeruginosa
Protocol: as §1
For the bactericidal tests, MICs are determined in a volume of 10 ml-bactericidal conditions (exponential bacterial growth): […]

[3] = test system: E. aerogenes; assay: MIC, dilutions in liquid medium, alone and combined with NXL105; format: cell-based; details: E. aerogenes EAR2, Case-R + FEP-R

Structure (SMILES) | MIC determined on microplates [1] | MIC in a volume of 10 ml, bactericidal conditions [2] | MIC [3] | MIC ([1]; Pseudomonas aeruginosa) | MIC ([2]; Pseudomonas aeruginosa) | MIC ([3]; Klebsiella aerogenes, 24 h, read-out: MIC)
Cn1ncc2c1[C@@H](CN)N1C[C@H]2N(OS(=O)(=O)O)C1=O (relative stereo) [NXL105, Sodium and Trifluoroacetate Salts of trans 8-(aminomethyl)-4,8-dihydro-1-methyl-5-(sulphooxy)-4,7-methano-7H-pyrazolo[3,4-e][1,3]diazepin-6(5H)-one] | 0.25 µg/mL | 0.25 µg/mL | >32 µg/mL |  |  | 
CC(C)(O/N=C(\C(=O)N[C@@H]1C(=O)N2C(C(=O)[O-])=C(C[n+]3ccccc3)CS[C@H]12)c1csc(N)n1)C(=O)O [Ceftazidime] |  |  |  | 2 µg/mL | 8 µg/mL | > 32 µg/mL
